According to patent US20230183193A1, “4-DIFLUOROMETHYL BENZOYL AMIDES WITH HERBICIDAL ACTION” (BAYER CROPSCIENCE AKTIENGESELLSCHAFT, priority 2017, published 2023):

Key:
[1] = test system: Abutilon theophrasti; experiment: Pre-emergence herbicidal action, ABUTH; assay type: in vivo; details: for Herbicidal efficacy against ABUTH: Table K; for herbicidal activity ABUTH: dosage 320 g/ha, scored visually after 3 weeks vs untreated controls
Summary of the method: (§1)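 Weed seeds were laid out in sandy loam and covered with soil, then the soil surface was treated with an aqueous suspension or emulsion of the formulated compound containing 0.2% wetting agent. Pots stayed in the greenhouse for 3 weeks before damage was rated visually against untreated plants.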

[2] = test system: Alopecurus myosuroides; experiment: Pre-emergence herbicidal action, ALOMY; assay type: in vivo; details: for herbicidal activity ALOMY: dosage 320 g/ha, scored visually after 3 weeks vs untreated controls
Summary of the method: as §1

[3] = test system: Amaranthus retroflexus; experiment: Pre-emergence herbicidal action, AMARE; assay type: in vivo; details: dosage 320 g/ha, scored visually after 3 weeks vs untreated controls
Summary of the method: as §1

[4] = test system: Avena fatua; experiment: Pre-emergence herbicidal action, AVEFA; assay type: in vivo; details: for herbicidal activity AVEFA: dosage 320 g/ha, scored visually after 3 weeks vs untreated controls
Summary of the method: as §1

[5] = test system: Cyperus serotinus; experiment: Pre-emergence herbicidal action, CYPES; assay type: in vivo; details: for herbicidal activity CYPES: dosage 320 g/ha, scored visually after 3 weeks vs untreated controls
Summary of the method: as §1

[6] = test system: Matricaria inodora; experiment: Pre-emergence herbicidal action, MATIN; assay type: in vivo; details: for Herbicidal efficacy against MATIN: Table K; for herbicidal activity MATIN: dosage 320 g/ha, scored visually after 3 weeks vs untreated controls
Summary of the method: as §1

[7] = test system: Polygonum convolvulus; experiment: Pre-emergence herbicidal action, POLCO; assay type: in vivo; details: Table K
Source text: 1. Pre-Emergence Herbicidal Action Against Harmful Plants Seeds of monocotyledonous and dicotyledonous weed plants and crop plants are laid out in sandy loam soil in wood-fiber pots and covered with soil. The compounds of the invention, formulated in the form of wettable powders (WP) or as emulsion concentrates (EC), are then applied to the surface of the covering soil in the form of an aqueous suspension or emulsion at a water application rate equating to […], with addition of 0.2% wetting agent. After the treatment, the pots are placed in a greenhouse and kept under good growth conditions for the trial plants. The damage to the test plants is scored visually after a test period of 3 weeks by comparison with untreated controls (herbicidal activity in percent (%): 100% activity=the plants have died, 0% activity=like control plants).
For comparison, the herbicidal activity of numerous compounds according to the invention was tested with the structurally closest compounds known from the documents WO 2011/035874, WO 2012/028579 and WO 2012/126932, by the pre- and post-emergence method.

[8] = test system: Setaria viridis; experiment: Pre-emergence herbicidal action, SETVI; assay type: in vivo; details: for herbicidal activity SETVI: dosage 320 g/ha, scored visually after 3 weeks vs untreated controls
Summary of the method: as §1

[9] = test system: Stellaria media; experiment: Pre-emergence herbicidal action, STEME; assay type: in vivo; details: dosage 320 g/ha, scored visually after 3 weeks vs untreated controls
Summary of the method: as §1

[10] = test system: Viola tricolor; experiment: Pre-emergence herbicidal action, VIOTR; assay type: in vivo; details: for Herbicidal efficacy against VIOTR: Table K; for herbicidal activity VIOTR: dosage 320 g/ha, scored visually after 3 weeks vs untreated controls
Summary of the method: as §1

[11] = test system: Abutilon theophrasti; experiment: Post-emergence herbicidal action, ABUTH; assay type: in vivo; details: 80 g/ha, Table D
Summary of the method: (§2)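 Greenhouse-grown plants were sprayed at the one-leaf stage, 2–3 weeks after sowing. Damage was scored visually after about 3 weeks against untreated controls, as % action (100% = dead, 0% = like control).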

[12] = test system: Alopecurus myosuroides; experiment: Post-emergence herbicidal action, ALOMY; assay type: in vivo; details: for herbicidal activity ALOMY: Table C
Summary of the method: as §2

[13] = test system: Amaranthus retroflexus; experiment: Post-emergence herbicidal action, AMARE; assay type: in vivo; details: 80 g/ha, Table D
Summary of the method: as §2

[14] = test system: Avena fatua; experiment: Post-emergence herbicidal action, AVEFA; assay type: in vivo; details: for herbicidal activity AVEFA: Table C
Summary of the method: as §2

[15] = test system: Pharbitis purpureum; experiment: Post-emergence herbicidal action, PHBPU; assay type: in vivo; details: 80 g/ha, Table D
Summary of the method: as §2

[16] = test system: Setaria viridis; experiment: Post-emergence herbicidal action, SETVI; assay type: in vivo; details: for herbicidal activity SETVI: Table C
Summary of the method: as §2

[17] = test system: Stellaria media; experiment: Post-emergence herbicidal action, STEME; assay type: in vivo; details: for Herbicidal activity STEME: Table D
Summary of the method: as §2

[18] = test system: Viola tricolor; experiment: Post-emergence herbicidal action, VIOTR; assay type: in vivo; details: for herbicidal activity VIOTR: Table D
Summary of the method: as §2

[19] = test system: ECHCG; experiment: Post-emergence herbicidal action, ECHCG; assay type: in vivo; details: 80 g/ha, Table C
Summary of the method: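 Weed and crop plants grown in sandy loam in the greenhouse, treated at the one-leaf stage 2–3 weeks after sowing. Damage scored visually after about 3 weeks vs untreated controls (0% = control, 100% = dead).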

[20] = test system: ECHCG; experiment: Pre-emergence herbicidal action, ECHCG; assay type: in vivo, Echinochloa crus-galli

CSc1c(C(F)F)ccc(C(=O)Nc2nnnn2C)c1C [Example 1-1]
Herbicidal efficacy against ABUTH ([1]; dosage 20 g/ha): 90 | Herbicidal efficacy against ABUTH ([1]; dosage 80 g/ha): 100 | herbicidal activity ABUTH [1]: 100% | Herbicidal efficacy against ALOMY ([2]; 20 g/ha): 90 | Herbicidal efficacy against ALOMY ([2]; 80 g/ha): 90 | herbicidal activity ALOMY [2]: 100% | herbicidal activity AMARE [3]: 100% | Herbicidal efficacy against AVEFA ([4]; 80 g/ha): 90 | herbicidal activity AVEFA [4]: 100% | Herbicidal efficacy against CYPES ([5]; 20 g/ha): 30 | Herbicidal efficacy against CYPES ([5]; 80 g/ha): 70 | herbicidal activity CYPES [5]: 80% | Herbicidal efficacy against MATIN ([6]; dosage 20 g/ha): 70 | Herbicidal efficacy against MATIN ([6]; dosage 80 g/ha): 90 | herbicidal activity MATIN [6]: 100% | Herbicidal efficacy against POLCO ([7]; dosage 20 g/ha): 60 | Herbicidal efficacy against POLCO ([7]; dosage 80 g/ha): 70 | Herbicidal efficacy against SETVI ([8]; 20 g/ha): 70 | Herbicidal efficacy against SETVI ([8]; 80 g/ha): 100 | herbicidal activity SETVI [8]: 100% | Herbicidal activity STEME [9]: 100% | Herbicidal efficacy against VIOTR ([10]; dosage 20 g/ha): 100 | Herbicidal efficacy against VIOTR ([10]; dosage 80 g/ha): 100 | herbicidal activity VIOTR [10]: 100% | herbicidal activity ABUTH [11]: 100% | Herbicidal efficacy against ALOMY ([12]; 5 g/ha): 60 | Herbicidal efficacy against ALOMY ([12]; 20 g/ha): 90 | Herbicidal efficacy against ALOMY ([12]; 80 g/ha): 90 | herbicidal activity ALOMY ([12]; 80 g/ha): 90% | herbicidal activity AMARE [13]: 100% | Herbicidal efficacy against AVEFA ([14]; 5 g/ha): 40 | Herbicidal efficacy against AVEFA ([14]; 20 g/ha): 90 | Herbicidal efficacy against AVEFA ([14]; 80 g/ha): 100 | herbicidal activity AVEFA ([14]; 80 g/ha): 100% | Herbicidal activity PHBPU [15]: 90% | Herbicidal efficacy against SETVI ([16]; 5 g/ha): 100 | Herbicidal efficacy against SETVI ([16]; 20 g/ha): 100 | Herbicidal efficacy against SETVI ([16]; 80 g/ha): 100 | herbicidal activity SETVI ([16]; 80 g/ha): 100% | Herbicidal efficacy against STEME ([17]; 5 g/ha): 100 | Herbicidal efficacy against STEME ([17]; 20 g/ha): 100 | Herbicidal efficacy against STEME ([17]; 80 g/ha): 100 | Herbicidal activity STEME ([17]; 80 g/ha): 100% | Herbicidal efficacy against VIOTR ([18]; 5 g/ha): 100 | Herbicidal efficacy against VIOTR ([18]; 20 g/ha): 100 | Herbicidal efficacy against VIOTR ([18]; 80 g/ha): 100 | herbicidal activity VIOTR ([18]; 80 g/ha): 100% | Herbicidal activity ECHCG [19]: 100% | Herbicidal efficacy against ECHCG ([20]; 20 g/ha): 80 | Herbicidal efficacy against ECHCG ([20]; 80 g/ha): 100

CSc1c(C(F)F)ccc(C(=O)Nc2nnnn2C)c1Cl [Example 1-49]
Herbicidal efficacy against ABUTH ([1]; dosage 20 g/ha): 70 | Herbicidal efficacy against ABUTH ([1]; dosage 80 g/ha): 100 | herbicidal activity ABUTH [1]: 100% | Herbicidal efficacy against ALOMY ([2]; 20 g/ha): 40 | Herbicidal efficacy against ALOMY ([2]; 80 g/ha): 90 | herbicidal activity ALOMY [2]: 100% | herbicidal activity AMARE [3]: 100% | Herbicidal efficacy against AVEFA ([4]; 20 g/ha): 50 | Herbicidal efficacy against AVEFA ([4]; 80 g/ha): 80 | herbicidal activity AVEFA [4]: 100% | Herbicidal efficacy against CYPES ([5]; 20 g/ha): 50 | Herbicidal efficacy against CYPES ([5]; 80 g/ha): 70 | herbicidal activity CYPES [5]: 90% | Herbicidal efficacy against MATIN ([6]; dosage 20 g/ha): 80 | herbicidal activity MATIN [6]: 100% | Herbicidal efficacy against POLCO ([7]; dosage 80 g/ha): 50 | Herbicidal efficacy against SETVI ([8]; 20 g/ha): 90 | herbicidal activity SETVI [8]: 100% | Herbicidal activity STEME [9]: 90% | Herbicidal efficacy against VIOTR ([10]; dosage 20 g/ha): 100 | Herbicidal efficacy against VIOTR ([10]; dosage 80 g/ha): 100 | herbicidal activity VIOTR [10]: 100% | herbicidal activity ABUTH [11]: 90% | Herbicidal efficacy against ALOMY ([12]; 5 g/ha): 60 | herbicidal activity ALOMY ([12]; 80 g/ha): 90% | herbicidal activity AMARE [13]: 80% | Herbicidal efficacy against AVEFA ([14]; 5 g/ha): 50 | herbicidal activity AVEFA ([14]; 80 g/ha): 100% | Herbicidal activity PHBPU [15]: 90% | Herbicidal efficacy against SETVI ([16]; 5 g/ha): 80 | herbicidal activity SETVI ([16]; 80 g/ha): 90% | Herbicidal efficacy against STEME ([17]; 5 g/ha): 70 | Herbicidal activity STEME ([17]; 80 g/ha): 100% | Herbicidal efficacy against VIOTR ([18]; 5 g/ha): 100 | herbicidal activity VIOTR ([18]; 80 g/ha): 100% | Herbicidal activity ECHCG [19]: 80% | Herbicidal efficacy against ECHCG ([20]; 20 g/ha): 50 | Herbicidal efficacy against ECHCG ([20]; 80 g/ha): 100
